Marks after values point to notes of the source that are not given here. Square brackets hold non-standard residues; d marks the D form. Ends that are not written are not given here.
What was measured:
Assay type in all cases: in vivo, mouse
[1] = Epitope mapping: body weight and food intake in female C57BL/6J ob/ob mice, 7 daily ip injections; conditions: 7 days; for Cumulative food intake / Percent heavier (+) or lighter (−) than initial weight / Weight gain (+) or loss (−): 1 mg/day ip
Description: Animal procedures. Feeding and weighing schedules, as well as peptide administration protocols, are as described in EXAMPLE 8, supra.
Statistical analysis. Changes in body weight and differences in food intake between peptide-treated and vehicle-injected control mice were analyzed by analysis of variance (ANOVA) and considered significant when P<0.05.
Female ob/ob mice (n=6 per group) were given a single ip injection of 0.2 ml of vehicle (PBS, pH 7.2) or leptin-related synthetic peptide amide in 0.2 ml PBS for 7 consecutive days. Daily changes in body weight compared to pretreatment weights in both vehicle-injected control and peptide-treated mice are shown in FIG. 4. […] There was no evidence of weight loss in response to peptide treatment.

[2] = Truncated and D-amino acid-substituted analogs: body weight, food and water intake in female C57BL/6J ob/ob mice, 7 days; conditions: for Cumulative water intake / Cumulative food intake / Heavier (+) or lighter (−) than initial weight / Weight gain (+) or loss (−) / Cumulative food intake g/mouse3 g/mouse3 / Decrease(%) of cumulative food intake: 1 mg/day ip; for Cumulative food intake / Heavier (+) or lighter (−) than initial weight / Weight gain (+) or loss (−) / Increase (+) or decrease (−) of cumulative food intake: D-analog series; for Increase (+) or decrease (−) of cumulative water intake / Increase (+) or decrease (−) of cumulative food intake / Decrease(%) of cumulative food intake: vs vehicle; for Food intake relative to OB3: truncated analogs
Description: A. Housing: 6–8-week old homozygous female obese (ob/ob) and wild type (+1+) mice (C57BL/6J, Jackson Laboratory, Bar Harbor, Maine) were maintained in a temperature-controlled room (24° C.) in the Albany Medical College Animal Resources Facility under alternating 12-h light and dark periods (lights on 0700–1900 h). The animals were housed three per cage, and allowed food and water ad libitum for six days following their arrival.
Food and water remaining after 24 h was measured to the nearest 0.1 g and 0.1 ml, respectively, and the average amount consumed per mouse was calculated (mean±SEM, n=6). The mice were weighed once daily between 0900 and 1100 h on an Acculab V-333 electronic balance (Cole-Parmer, Vernon Hills, Ill.)
C. […] Control mice received 0.2 ml PBS (ip) only.
Female C7BL/6J ob/ob mice were given a single ip injection of vehicle (PBS, pH 7.2), LEP-(116–130) or truncated peptide (1 mg/200 ul PBS) for seven consecutive days. Daily changes in body weight compared to pretreatment weights of vehicle-injected control and peptide-treated mice were analyzed.

[3] = Blood glucose in female C57BL/6J ob/ob mice (Example 11); conditions: 1 mg/day ip
Description: D. Measurement of blood glucose: Blood was drawn from the tail vein of each mouse 2 h before the onset of the dark period at the beginning of the study, and after 2, 4, and 6 days of peptide treatment. The blood was applied to a test strip, and glucose levels were measured with a Glucometer Elite (Bayer, Elkhart, Ind.) glucose monitor.

[4] = 12-day ip study of body weight gain and food intake in female C57BL/6J ob/ob mice; conditions: 1 mg/day ip, 12 days
Description: The graphs show changes in body weight (expressed as percent of initial weight) and food intake (expressed as mg/gm body weight/mouse) for mice given vehicle or synthetic leptin-related peptide OB3 (1 mg/day, ip, 12 days).
Mice were injected with leptin-related synthetic peptide (1 mg/g body weight, ip) or vehicle daily for 12 consecutive days. Each bar represents mean±SEM food consumption per mouse (n=6 mice per group) after 3, 6, 9 and 12 days of treatment.
Each value represents mean±SEM change in body weight for a group of 6 mice.
Mice were injected with leptin-related synthetic peptide (1 mg/g body weight, ip) or vehicle for 12 consecutive days. Each bar and vertical line represents mean±food consumption per mouse (n=6 mice per group) after 3, 6, 9 and 12 days of treatment.

## S L S K M D Q T L A V Y Q Q V (SLSKMDQTLAVYQQV) [LEP(71–85)]
[1]
  Cumulative food intake: 35.5 ± 1.1^b gm/mouse
  Percent heavier (+) or lighter (−) than initial weight: +20.0%
  Weight gain (+) or loss (−): +5.0 g
  Food intake vs vehicle: significantly (P=0.01) less than vehicle-injected control mice

## Ser-Cys-Ser-Leu-Pro-[D-Gln]-Thr (SCSLP[dQ]T) [[D-Gln-6]-OB3]
[2]; 7 days
  Cumulative water intake: 57.1 ± 1.0 ml/mouse
  Cumulative food intake: 43.5 ± 0.9 g/mouse
  Heavier (+) or lighter (−) than initial weight: +4.6%
  Weight gain (+) or loss (−): +2.1 ± 0.14 g
  Food intake of D-analogs: reduced food intake when compared to vehicle-injected control mice, but not to the level seen in mice receiving OB3
[2]
  Increase (+) or decrease (−) of cumulative water intake: −11.1%
  Increase (+) or decrease (−) of cumulative food intake: −13.7%
[3]; Day 2
  Serum glucose level: 394.0 ± 45.4 mg/dL
[3]; Day 4
  Serum glucose level: 354.5 ± 17.3 mg/dL
[3]; Day 6
  Serum glucose level: 358.0 ± 28.1 mg/dL

## S[dC]SLPQT [[D-Cys-2]-OB3]
[2]; 7 days
  Cumulative water intake: 62.7 ± 1.7 ml/mouse
  Cumulative food intake: 47.6 ± 0.8 g/mouse
  Heavier (+) or lighter (−) than initial weight: +12.8%
  Weight gain (+) or loss (−): +4.8 ± 0.11 g
  Food intake of D-analogs: reduced food intake when compared to vehicle-injected control mice, but not to the level seen in mice receiving OB3
[2]
  Increase (+) or decrease (−) of cumulative water intake: −2.3%
  Increase (+) or decrease (−) of cumulative food intake: −5.6%
[3]; Day 2
  Serum glucose level: 298.0 ± 27.9 mg/dL
[3]; Day 4
  Serum glucose level: 403.0 ± 41.1 mg/dL
[3]; Day 6
  Serum glucose level: 346.2 ± 31.7 mg/dL

## Ser-Cys-Ser-Leu-Pro-Gln-[D-Thr] (SCSLPQ[dT]; not fully specified; printed as Ser-Cys-Ser-Leu-Pro-Gln-[D-Thr]) [[D-Thr-7]-OB3]
[2]; 7 days
  Cumulative water intake: 68.3 ± 2.7 ml/mouse
  Cumulative food intake: 56.1 ± 0.6 g/mouse
  Heavier (+) or lighter (−) than initial weight: +10.6%
  Weight gain (+) or loss (−): +4.6 ± 0.34 g
  Food intake of D-analogs: slight increase in food consumption
[2]
  Increase (+) or decrease (−) of cumulative water intake: +6.4%
  Increase (+) or decrease (−) of cumulative food intake: +11.3%
[3]; Day 2
  Serum glucose level: 384.2 ± 18.1 mg/dL
[3]; Day 4
  Serum glucose level: 405.5 ± 16.0 mg/dL
[3]; Day 6
  Serum glucose level: 375.7 ± 17.8 mg/dL

## SCSL[dP]QT [[D-Pro-5]-OB3]
[2]; 7 days
  Cumulative water intake: 32.2 ± 0.8^b ml/mouse
  Cumulative food intake: 36.0 ± 12^b g/mouse
  Heavier (+) or lighter (−) than initial weight: +2.4%
  Weight gain (+) or loss (−): +1.2 ± 0.13^b g
  Food intake of D-analogs: equivalent to that of mice receiving OB3
  Water consumption relative to OB3: significantly less than that seen in mice receiving OB3
[2]
  Increase (+) or decrease (−) of cumulative water intake: −49.8%
  Increase (+) or decrease (−) of cumulative food intake: −28.6%
[3]; Day 2
  Serum glucose level: 272.0 ± 22.2^b mg/dl
[3]; Day 4
  Serum glucose level: 213.0 ± 28.4^a mg/dl
[3]; Day 6
  Serum glucose level: 202.8 ± 31.4^a mg/dl

## SCSLPQTS [LEP-(116–123)]
[2]; 7 days
  Cumulative food intake g/mouse3 g/mouse3: 34.3 ± 10 g/mouse
  Decrease(%) of cumulative food intake: 23.3%
  Food intake relative to OB3: equivalent to that of mice treated with OB3

## T K T L I K T I V T R I N D I (TKTLIKTIVTRINDI) [LEP(31–45)]
[4]
  Body weight gain and food intake vs vehicle: not significantly (i.e., P>0.05) different
[1]
  Cumulative food intake: 39.5 ± 0.6 gm/mouse
  Percent heavier (+) or lighter (−) than initial weight: +26.6%
  Weight gain (+) or loss (−): +6.6 g

## [D-Ser][D-Cys][D-Ser][D-Leu][D-Pro][D-Gln][D-Thr] [[D]-OB3]
[2]; 7 days
  Cumulative water intake: 67.5 ± 2.2 ml/mouse
  Cumulative food intake: 52.7 ± 1.0 g/mouse
  Heavier (+) or lighter (−) than initial weight: +10.0%
  Weight gain (+) or loss (−): +4.0 ± 0.36 g
  Food intake of D-analogs: slight increase in food consumption
[2]
  Increase (+) or decrease (−) of cumulative water intake: +5.1%
  Increase (+) or decrease (−) of cumulative food intake: +4.6%
[3]; Day 2
  Serum glucose level: 325.7 ± 31.5 mg/dL
[3]; Day 4
  Serum glucose level: 405.5 ± 35.8 mg/dL
[3]; Day 6
  Serum glucose level: 401.8 ± 25.0 mg/dL

## [D-Ser]-Cys-Ser-Leu-Pro-Gln-Thr ([dS]CSLPQT) [[D-Ser-1]-OB3]
[2]; 7 days
  Cumulative water intake: 58.0 ± 1.8 ml/mouse
  Cumulative food intake: 44.4 ± 1.4 g/mouse
  Heavier (+) or lighter (−) than initial weight: +4.6%
  Weight gain (+) or loss (−): +3.3 ± 0.18 g
  Food intake of D-analogs: reduced food intake when compared to vehicle-injected control mice, but not to the level seen in mice receiving OB3
[2]
  Increase (+) or decrease (−) of cumulative water intake: −9.7%
  Increase (+) or decrease (−) of cumulative food intake: −11.9%
[3]; Day 2
  Serum glucose level: 356.0 ± 21.2 mg/dL
[3]; Day 4
  Serum glucose level: 360.1 ± 25.1 mg/dL
[3]; Day 6
  Serum glucose level: 287.0 ± 24.4 mg/dL

## Ser-Cys-[D-Ser]-Leu-Pro-Gln-Thr (SC[dS]LPQT) [[D-Ser-3]-OB3]
[2]; 7 days
  Cumulative water intake: 53.2 ± 1.1 ml/mouse
  Cumulative food intake: 45.9 ± 0.6 g/mouse
  Heavier (+) or lighter (−) than initial weight: +13.2%
  Weight gain (+) or loss (−): +4.7 ± 0.67 g
  Food intake of D-analogs: reduced food intake when compared to vehicle-injected control mice, but not to the level seen in mice receiving OB3
[2]
  Increase (+) or decrease (−) of cumulative water intake: −17.1%
  Increase (+) or decrease (−) of cumulative food intake: −8.9%
[3]; Day 2
  Serum glucose level: 385.0 ± 10.0 mg/dL
[3]; Day 4
  Serum glucose level: 337.0 ± 43.6 mg/dL
[3]; Day 6
  Serum glucose level: 348.2 ± 14.0 mg/dL

## A V P I Q K V Q D D T K T L I (AVPIQKVQDDTKTLI) [LEP(21–35)]
[4]
  Body weight gain and food intake vs vehicle: not significantly (i.e., P>0.05) different
[1]
  Cumulative food intake: 39.1 ± 1.0 gm/mouse
  Percent heavier (+) or lighter (−) than initial weight: +24.0%
  Weight gain (+) or loss (−): +6.2 g

## SCSLPQ [LEP-(116–121)]
[2]; 7 days
  Cumulative food intake g/mouse3 g/mouse3: 41.6 ± 1.4 g/mouse
  Decrease(%) of cumulative food intake: 6.8%
  Food intake less than vehicle-injected control mice: 6.8%

## D F I P G L H P I L S L S K M (DFIPGLHPILSLSKM) [LEP(61–75)]
[1]
  Cumulative food intake: 44.6 ± 2.3 gm/mouse
  Percent heavier (+) or lighter (−) than initial weight: +24.0%
  Weight gain (+) or loss (−): +5.9 g

## V S A K Q R V T G L D F I P G (VSAKQRVTGLDFIPG; not fully specified) [LEP(51–65)]
[4]
  Body weight gain and food intake vs vehicle: not significantly (i.e., P>0.05) different
[1]
  Cumulative food intake: 40.7 ± 0.6 gm/mouse
  Percent heavier (+) or lighter (−) than initial weight: +25.0%
  Weight gain (+) or loss (−): +6.4 g

## Ser-Cys-Ser-Leu-Pro (SCSLP; printed: Ser-Cys-Ser-Leu-Pro) [LEP-(116–120)]
[2]; 7 days
  Cumulative food intake g/mouse3 g/mouse3: 42.4 ± 1.2 g/mouse
  Decrease(%) of cumulative food intake: 6.2%
  Food intake less than vehicle-injected control mice: 6.2%
[4]
  Body weight gain and food intake vs vehicle: did not approximate the activity observed with LEP(116–130)

## V Y Q Q V L T S L P S Q N V L (VYQQVLTSLPSQNVL) [LEP(81–95)]
[1]
  Cumulative food intake: 39.5 ± 1.1 gm/mouse
  Percent heavier (+) or lighter (−) than initial weight: +26.0%
  Weight gain (+) or loss (−): +6.2 g

## SCSLPQTSG [LEP-(116–124)]
[2]; 7 days
  Cumulative food intake g/mouse3 g/mouse3: 34.6 ± 0.9 g/mouse
  Decrease(%) of cumulative food intake: 22.6%
  Food intake relative to OB3: equivalent to that of mice treated with OB3

## S Q N V L Q I A N D L E N L R (SQNVLQIANDLENLR; not fully specified (N-terminus)) [LEP(91–105)]
[1]
  Cumulative food intake: 36.1 ± 0.7^b gm/mouse
  Percent heavier (+) or lighter (−) than initial weight: +18.6%
  Weight gain (+) or loss (−): +5.2 g
  Food intake vs vehicle: significantly (P=0.01) less than vehicle-injected control mice
